Test results: US9556130B2, “4-oxo-3,4-dihydro-1,2,3-benzotriazine modulators of GPR139” (Takeda Pharmaceutical Company Limited, priority 2014, dated 2017)

Experiments:
human GPR139 receptor [1] = biological target: T1, human GPR139 receptor (Homo sapiens (Human), UniProt Q6DWJ6); assay: GPR139 Competition Binding; details: stably transfected CHO-TRex membranes, 1 nM 3H radioligand; read-out: GPR139 Inhibition (Ki (nM));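 also: receptor expression induced with doxycycline before membrane preparation, bound radioactivity counted by scintillation, Ki fitted with a four-parameter logistic model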
T1 sequence (Q6DWJ6 whole entry): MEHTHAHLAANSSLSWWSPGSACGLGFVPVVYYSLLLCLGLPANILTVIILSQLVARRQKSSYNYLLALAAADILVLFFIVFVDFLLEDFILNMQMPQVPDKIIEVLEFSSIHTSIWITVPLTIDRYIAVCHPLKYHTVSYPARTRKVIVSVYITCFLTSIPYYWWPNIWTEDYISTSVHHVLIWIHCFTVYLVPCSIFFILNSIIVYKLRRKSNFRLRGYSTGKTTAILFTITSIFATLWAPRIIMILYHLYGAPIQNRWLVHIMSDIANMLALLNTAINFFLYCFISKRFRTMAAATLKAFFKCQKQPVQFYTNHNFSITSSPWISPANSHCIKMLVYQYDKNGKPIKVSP

human GPR139 receptor [2] = biological target: T1, human GPR139 receptor; assay: Activation of Calcium Signaling of GPR139 In Vitro Assay; format: cell-based; details: stably transfected CHO-TRex cells, Calcium 5 dye, FLIPR Tetra;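 also: receptor expression induced with doxycycline, calcium fluorescence read continuously for one minute after compound addition, EC50 taken from a four-parameter logistic fit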

Compound `Cc1ccc([C@H](C)NC(=O)Cn2nnc3cccc(C)c3c2=O)cc1` [Example 39, (S)-2-(5-methyl-4-oxobenzo[d][1,2,3]triazin-3 (4H)-yl)-N-(1-p-tolylethyl)acetamide] has a Ki (human GPR139 receptor [1]) of 92 nM and an EC50 (human GPR139 receptor [2]) of 6 nM.
Compound `COc1ccc([C@H](C)NC(=O)Cn2nnc3cccc(F)c3c2=O)cc1` [Example 33, (S)-2-(5-fluoro-4-oxobenzo[d][1,2,3]triazin-3(4H)-yl)-N-(1-(4-methoxyphenyl)ethyl)acetamide] has a Ki (human GPR139 receptor [1]) of 4850 nM and an EC50 (human GPR139 receptor [2]) of 41 nM.
In the case of `COc1ccc(CCN(C)C(=O)Cn2nnc3ccccc3c2=O)cc1` [Example 78, N-(4-methoxyphenethyl)-N-methyl-2-(4-oxobenzo[d][1,2,3]triazin-3(4H)-yl)acetamide], the EC50 (human GPR139 receptor [2]) is reported as 80 nM.
`Cc1ccc([C@H](C)NC(=O)Cn2nnc3cc(Cl)ccc3c2=O)cc1` [Example 21, (S)-2-(7-chloro-4-oxobenzo[d][1,2,3]triazin-3(4H)-yl)-N-(1-p-tolylethyl)acetamide] was tested, and the Ki (human GPR139 receptor [1]) was 173 nM and the EC50 (human GPR139 receptor [2]) was 17 nM.
`COc1cccc2nnn(CC(=O)N[C@@H](C)c3ccc(C(F)(F)F)cc3)c(=O)c12` [Example 61, (S)-2-(5-methoxy-4-oxobenzo[d][1,2,3]triazin-3 (4H)-yl)-N-(1-(4-(trifluoromethyl)phenyl)ethyl)acetamide] showed a Ki (human GPR139 receptor [1]) of 26 nM and an EC50 (human GPR139 receptor [2]) of 15 nM.
`CC[C@H](NC(=O)Cn1nnc2ccccc2c1=O)c1ccc(C(F)(F)F)cc1` [Example 87, (S)-2-(4-oxobenzo[d][1,2,3]triazin-3 (4H)-yl)-N-(1-(4-(trifluoromethyl)phenyl)propyl)acetamide] showed a Ki (human GPR139 receptor [1]) of 214 nM and an EC50 (human GPR139 receptor [2]) of 31 nM.
In the case of `COc1ccc([C@H](C)NC(=O)Cn2nnc3c(C)cc(C)cc3c2=O)cc1` [Example 42, (S)-2-(6,8-dimethyl-4-oxobenzo[d][1,2,3]triazin-3(4H)-yl)-N-(1-(4-methoxyphenyl)ethyl)acetamide], the Ki (human GPR139 receptor [1]) is reported as 179 nM and the EC50 (human GPR139 receptor [2]) is reported as 37 nM.
For `Cc1ccc([C@H](C)NC(=O)Cn2nnc3cc(C)ccc3c2=O)cc1` [Example 34, (S)-2-(7-methyl-4-oxobenzo[d][1,2,3]triazin-3(4H)-yl)-N-(1-p-tolylethyl)acetamide], the Ki (human GPR139 receptor [1]) was 347 nM and the EC50 (human GPR139 receptor [2]) was 7 nM.
In the case of `Cc1ccc([C@H](C)NC(=O)Cn2nnc3cccc(F)c3c2=O)cc1` [Example 32, (S)-2-(5-fluoro-4-oxobenzo[d][1,2,3]triazin-3(4H)-yl)-N-(1-p-tolylethyl)acetamide], the Ki (human GPR139 receptor [1]) is reported as 459 nM and the EC50 (human GPR139 receptor [2]) is reported as 16 nM.
For `Cc1ccc([C@H](C)NC(=O)Cn2nnc3c(F)cccc3c2=O)cc1` [Example 16, (S)-2-(8-fluoro-4-oxobenzo[d][1,2,3]triazin-3(4H)-yl)-N-(1-p-tolylethyl)acetamide], the Ki (human GPR139 receptor [1]) was 708 nM and the EC50 (human GPR139 receptor [2]) was 9 nM.
`COc1ccc([C@H](C)NC(=O)Cn2nnc3cccc(OC)c3c2=O)cc1` [Example 38, (S)-2-(5-methoxy-4-oxobenzo[d][1,2,3]triazin-3 (4H)-yl)-N-(1-(4-methoxyphenyl)ethyl)acetamide] gave a Ki (human GPR139 receptor [1]) of 619 nM and an EC50 (human GPR139 receptor [2]) of 26 nM.
Compound `COc1cccc2c(=O)n(CC(=O)N[C@@H](C)c3ccc(C(F)(F)F)cc3)nnc12` [Example 63, (S)-2-(8-methoxy-4-oxobenzo[d][1,2,3]triazin-3 (4H)-yl)-N-(1-(4-(trifluoromethyl)phenyl)ethyl)acetamide] has a Ki (human GPR139 receptor [1]) of 352 nM and an EC50 (human GPR139 receptor [2]) of 50 nM.
With `C[C@H](NC(=O)Cn1nnc2ccc(F)cc2c1=O)c1ccc(OC(F)(F)F)cc1F` [Example 71, (S)—N-(1-(2-fluoro-4-(trifluoromethoxy)phenyl)ethyl)-2-(6-fluoro-4-oxobenzo[d][1,2,3]triazin-3(4H)-yl)acetamide] the EC50 (human GPR139 receptor [2]) was 49 nM.
In the case of `COc1ccc([C@H](C)NC(=O)Cn2nnc3c(F)cccc3c2=O)cc1` [Example 17, (S)-2-(8-fluoro-4-oxobenzo[d][1,2,3]triazin-3(4H)-yl)-N-(1-(4-methoxyphenyl)ethyl)acetamide], the Ki (human GPR139 receptor [1]) is reported as 3600 nM and the EC50 (human GPR139 receptor [2]) is reported as 27 nM.
Work on `Cc1ccc([C@H](C)NC(=O)Cn2nnc3c(Cl)cccc3c2=O)cc1` [Example 22, (S)-2-(8-chloro-4-oxobenzo[d][1,2,3]triazin-3(4H)-yl)-N-(1-p-tolylethyl)acetamide] yielded a Ki (human GPR139 receptor [1]) of 110 nM and an EC50 (human GPR139 receptor [2]) of 7 nM.
In the case of `COc1ccc([C@H](C)NC(=O)Cn2nnc3cc(C)ccc3c2=O)cc1` [Example 35, (S)—N-(1-(4-methoxyphenyl)ethyl)-2-(7-methyl-4-oxobenzo[d][1,2,3]triazin-3(4H)-yl)acetamide], the Ki (human GPR139 receptor [1]) is reported as 1520 nM and the EC50 (human GPR139 receptor [2]) is reported as 42 nM.
Work on `COc1ccc([C@H](C)NC(=O)Cn2nnc3c(Cl)cc(Cl)cc3c2=O)cc1` [Example 27, (S)-2-(6,8-dichloro-4-oxobenzo[d][1,2,3]triazin-3(4H)-yl)-N-(1-(4-methoxyphenyl)ethyl)acetamide] yielded a Ki (human GPR139 receptor [1]) of 190 nM and an EC50 (human GPR139 receptor [2]) of 7 nM.
In the case of `Cc1ccc([C@H](C)NC(=O)Cn2nnc3c(Cl)cc(Cl)cc3c2=O)cc1` [Example 26, (S)-2-(6,8-dichloro-4-oxobenzo[d][1,2,3]triazin-3(4H)-yl)-N-(1-p-tolylethyl)acetamide], the Ki (human GPR139 receptor [1]) is reported as 26 nM and the EC50 (human GPR139 receptor [2]) is reported as 16 nM.
With `C[C@H](NC(=O)Cn1nnc2ccccc2c1=O)c1ccc(F)cc1Br` [Example 48, (S)—N-(1-(2-bromo-4-fluorophenyl)ethyl)-2-(4-oxobenzo[d][1,2,3]triazin-3(4H)-yl)acetamide] the EC50 (human GPR139 receptor [2]) was 1510 nM.
Work on `Cc1ccc([C@H](C)NC(=O)Cn2nnc3c(C)cccc3c2=O)cc1` [Example 24, (S)-2-(8-methyl-4-oxobenzo[d][1,2,3]triazin-3(4H)-yl)-N-(1-p-tolylethyl)acetamide] yielded a Ki (human GPR139 receptor [1]) of 72 nM and an EC50 (human GPR139 receptor [2]) of 9 nM.
With `CC[C@H](NC(=O)Cn1nnc2ccccc2c1=O)c1ccc(OC(F)(F)F)cc1` [Example 86, (S)-2-(4-oxobenzo[d][1,2,3]triazin-3(4H)-yl)-N-(1-(4-(trifluoromethoxy)phenyl)propyl)acetamide] the Ki (human GPR139 receptor [1]) was 183 nM and the EC50 (human GPR139 receptor [2]) was 50 nM.
In the case of `COc1ccc2nnn(CC(=O)N[C@@H](C)c3ccc(C(F)(F)F)cc3)c(=O)c2c1` [Example 60, (S)-2-(6-methoxy-4-oxobenzo[d][1,2,3]triazin-3(4H)-yl)-N-(1-(4-(trifluoromethyl)phenyl)ethyl)acetamide], the Ki (human GPR139 receptor [1]) is reported as 115 nM and the EC50 (human GPR139 receptor [2]) is reported as 18 nM.
`COc1cc(C)ccc1[C@H](C)NC(=O)[C@@H](C)n1nnc2ccccc2c1=O` [Example 51, (R)—N—((S)-1-(2-methoxy-4-methylphenyl)ethyl)-2-(4-oxobenzo[d][1,2,3]triazin-3(4H)-yl)propanamide] was tested, and the EC50 (human GPR139 receptor [2]) was 16 nM.
Work on `COc1ccc([C@H](C)NC(=O)Cn2nnc3c(OC)cccc3c2=O)cc1` [Example 31, (S)-2-(8-methoxy-4-oxobenzo[d][1,2,3]triazin-3 (4H)-yl)-N-(1-(4-methoxyphenyl)ethyl)acetamide] yielded an EC50 (human GPR139 receptor [2]) of 39 nM.
With `COc1cc(C)ccc1[C@H](C)NC(=O)[C@H](C)n1nnc2ccccc2c1=O` [Example 50, (S)—N—((S)-1-(2-methoxy-4-methylphenyl)ethyl)-2-(4-oxobenzo[d][1,2,3]triazin-3(4H)-yl)propanamide] the EC50 (human GPR139 receptor [2]) was 52 nM.
`C[C@H](NC(=O)Cn1nnc2ccccc2c1=O)c1ccc(F)cc1Cl` [Example 47, (S)—N-(1-(2-chloro-4-fluorophenyl)ethyl)-2-(4-oxobenzo[d][1,2,3]triazin-3(4H)-yl)acetamide] showed an EC50 (human GPR139 receptor [2]) of 14 nM.
For `COc1ccc([C@H](C)NC(=O)Cn2nnc3ccc(C)cc3c2=O)cc1` [Example 29, (S)—N-(1-(4-methoxyphenyl)ethyl)-2-(6-methyl-4-oxobenzo[d][1,2,3]triazin-3(4H)-yl)acetamide], the EC50 (human GPR139 receptor [2]) was 19 nM.
